Experiments:
caspase3/7 in PC3 cells = test: Caspase-3/7 activity (Apo-ONE Homogeneous assay); type: cell-based, human; conditions: PC3, 0–10 μM, 24 h
Experimental: For caspase 3/7 activities, PC3 cells were seeded at 5,000 cells/well in 96-well plate overnight. Then the cells were treated with 0–10 μM CTA095 for 24 h. Caspase-3/7 activities were measured using the Apo-ONE Homogeneous Caspase-3/7 Assay kit (Promega, Madison, WI) according to the manufacturer's instruction. For caspase 9 activity, PC3 cells were seeded in 10 mm tissue culture plate and grew to 50% confluence. Cells were then treated with 0–10 μM CTA095 for 24 h. Cells were harvested and caspase 9 activity was measured using a Western blot with an anti-caspase 9 antibody.
Figure 7 Induction of apoptosis of PC3 cells following treatment with CTA095. PC3 cells were seeded at 10^6 cells/ml (2 ml) in a 6-well plate overnight and then treated with CTA095 at the indicated concentrations for 24 h. Cell cycle arrest was analyzed using PI staining (A). Apoptosis was analyzed using Annexin-V FITC apoptosis detection kit (B). Caspase 9 activation was measured using western blot (D). For caspase 3/7 activity, PC3 cells were seeded at 5000 cells/well in 96 well plate overnight and treated with CTA095 at 0–10 μM for 24 h. Caspase-3/7 activities were measured using the Apo-ONE Homogeneous Caspase-3/7 Assay kit (Promega, Madison, WI) according to the manufacturer's instruction. Columns, mean; bars, standard deviation, n = 3. […]

PC3-AZD20 cells = test: Annexin-V FITC apoptosis in Src inhibitor resistant cells; type: cell-based, human; conditions: 10 μM
Experimental: PC3-AZD20 cells were seeded at 10^6 cells/well in 6 well plates overnight. The cells were treated with AZD0530 or CTA095 at 10 μM. Apoptosis was analyzed using Annexin-V FITC apoptosis detection kit. The mRNA levels of Myc and BCL2 were measured using real-time PCR. pEtk, Etk, pSrc, Src, pStat3, Stat3, Myc and BCL2 levels were measured using the corresponding antibodies through a Western blot.
Figure 12 CTA095 induces apoptosis in Src inhibitor resistant prostate cancer cells through Myc and BCL2 inhibition. PC3-AZD20 (PC3 cell resistant to 20 μM AZD0530) cells were seeded at 10^6 cells/well in 6 well plates overnight. The cells were treated with AZD0530 or CTA095 at 10 μM. Apoptosis was analyzed using Annexin-V FITC apoptosis detection kit (A). The mRNA levels of Myc and BCL2 were measured using real-time PCR (B). pEtk, Etk, pSrc, Src, pStat3, Stat3, Myc and BCL2 levels were measured using the corresponding antibodies through Western blot (C). Columns, mean; bars, standard deviation, n = 3.

Etk = target: T1, Etk (Homo sapiens, UniProt P51813); test: Etk autophosphorylation assay (in vitro kinase assay); type: biochemical; conditions: purified Etk, 33P-ATP, 30 min
T1 construct: purchased Millipore Inc (Dundee, UK)
T1 sequence (P51813 1-675): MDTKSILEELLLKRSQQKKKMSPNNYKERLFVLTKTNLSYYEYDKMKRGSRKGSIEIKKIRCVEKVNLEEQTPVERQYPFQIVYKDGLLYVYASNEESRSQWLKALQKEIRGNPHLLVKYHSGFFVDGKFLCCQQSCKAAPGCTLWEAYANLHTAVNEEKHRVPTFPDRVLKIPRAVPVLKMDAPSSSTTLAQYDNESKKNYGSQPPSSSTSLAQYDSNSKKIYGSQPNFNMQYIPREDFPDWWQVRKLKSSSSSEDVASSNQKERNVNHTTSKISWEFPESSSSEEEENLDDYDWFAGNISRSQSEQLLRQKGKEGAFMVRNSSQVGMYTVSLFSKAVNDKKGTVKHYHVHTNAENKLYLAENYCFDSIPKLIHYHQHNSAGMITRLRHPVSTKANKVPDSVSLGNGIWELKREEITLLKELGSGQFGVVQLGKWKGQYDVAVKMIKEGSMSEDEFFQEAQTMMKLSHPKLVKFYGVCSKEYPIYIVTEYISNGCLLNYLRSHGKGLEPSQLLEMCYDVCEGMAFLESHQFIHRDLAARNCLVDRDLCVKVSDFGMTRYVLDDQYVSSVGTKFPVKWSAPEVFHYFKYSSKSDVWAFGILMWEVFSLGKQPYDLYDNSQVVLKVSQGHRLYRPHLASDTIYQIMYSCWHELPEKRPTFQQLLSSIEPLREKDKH
Experimental: Etk autophosphorylation activity was measured by an in vitro kinase assay. Briefly, purified Etk (100 ng) was mixed with CTA095 in the kinase assay buffer (20 mM Hepes pH 7.55, 10 mM MgCl2, 10 mM MnCl2, 1 mM DTT, 500 μM Na3VO4). The cold ATP (5 µM) and hot r-^33P-ATP (5 µCi) were added to the mixture and the kinase reaction was performed at 30°C for 30 min. The reactions were terminated with a 4X SDS-PAGE sample buffer, and then loaded onto an 8% SDS-polyacrylamide gel for electrophoresis. The gel was vacuum dried and the ETK auto kinase activity was analyzed with a phosphoimager (Biorad).
The Btk family of non-receptor tyrosine kinases is characterized by the presence of an autophosphorylation site within the non-catalytic Src homology 3 (SH3) domain. Thus, it was also important to determine the ability of CTA095 to inhibit Etk autophosphorylation. Therefore, an in vitro Etk autophosphorylation assay was established in which purified Etk was mixed with CTA095 in the presence of ^33P-ATP. After 30 min, the reaction was terminated, and the samples were loaded onto an SDS-polyacrylamide gel for electrophoresis. After drying, the gel was analyzed with a phosphoimager.

[1] = system: STAT3 phosphorylation in PC3 cells; test: Western blot of STAT3 phosphorylation; type: cell-based, human; conditions: 24 h
Experimental: Western blotting was performed as described previously. Proteins were detected using the following antibodies: β-actin (Sigma-Aldrich, Saint Louis, MO), Etk (Santa Cruz Inc., Santa Cruz, CA), pEtk; Src, pSrc; Stat3, pStat3. For phospho-Etk, cells were pre-treated with 100 μM pervanadate for 15 min before harvest.
Figure 4 Inhibition of cell signaling in PC3 cells following treatment with CTA095. Cells were grown in 10 mm plate to 50% confluence and treated with CTA095. Cells were harvested after 24 h. pEtk, Etk, pSrc, Src, pStat3, Stat3, pAkt and Akt levels were measured using the corresponding antibodies by Western blot. One of three similar experiments depicted.

Question: O=c1[nH]c2cc3nc(-c4ccc5oc6ccccc6c5c4)n(CCCN4CCCCC4)c3cc2nc1-c1ccccc1 [CTA095, 2-(dibenzo[b,d]furan-2-yl)-7-phenyl-1-(3-(piperidin-1-yl)propyl)-1H-imidazo[4,5-g]quinoxalin-6(5H)-one] was tested. Which “activation of caspase3/7” value (caspase3/7 in PC3 cells) did it give?
Answer: Its value is “dose dependent activation”.

Question: And the “apoptosis in PC3-AZD20 cells” value (PC3-AZD20 cells)?
Answer: The value was “Massive apoptosis was induced”.

Question: And the Etk autophosphorylation (Etk)?
Answer: The Etk autophosphorylation was “inhibit Etk autophosphorylation in a concentration dependent manner”.

Question: And the STAT3 phosphorylation [1]?
Answer: Its STAT3 phosphorylation is “also inhibited”.
